Experimental data as given in BindingDB's records for doi:10.1021/ja0727520 (University of California Berkeley, 2007).

Experiments:
Assay in all cases: Determination of Inhibitor Ki
Conditions in all cases: pH 7.4; 22 °C
[1] = target: T1, TYR_PHOSPHATASE_2 domain-containing protein (Mycobacterium tuberculosis (strain CDC 1551 / Oshkosh), UniProt P96830)
T1 sequence (P96830 whole entry): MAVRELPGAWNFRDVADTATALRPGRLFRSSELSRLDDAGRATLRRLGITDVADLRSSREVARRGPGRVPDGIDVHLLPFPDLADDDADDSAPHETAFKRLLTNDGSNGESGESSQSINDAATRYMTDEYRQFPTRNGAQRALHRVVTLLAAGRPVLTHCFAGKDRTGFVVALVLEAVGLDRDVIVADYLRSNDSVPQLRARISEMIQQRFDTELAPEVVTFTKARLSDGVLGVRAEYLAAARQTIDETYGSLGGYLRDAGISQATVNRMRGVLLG
Text: (§1) The initial rate data collected was used for determination of Ki values. For Ki determination, the kinetic values were obtained directly from nonlinear regression of substrate-velocity curves in the presence of various concentrations of inhibitor.

[2] = target: T2, Receptor-type tyrosine-protein phosphatase C (Homo sapiens, UniProt P08575)
T2 sequence (P08575 whole entry): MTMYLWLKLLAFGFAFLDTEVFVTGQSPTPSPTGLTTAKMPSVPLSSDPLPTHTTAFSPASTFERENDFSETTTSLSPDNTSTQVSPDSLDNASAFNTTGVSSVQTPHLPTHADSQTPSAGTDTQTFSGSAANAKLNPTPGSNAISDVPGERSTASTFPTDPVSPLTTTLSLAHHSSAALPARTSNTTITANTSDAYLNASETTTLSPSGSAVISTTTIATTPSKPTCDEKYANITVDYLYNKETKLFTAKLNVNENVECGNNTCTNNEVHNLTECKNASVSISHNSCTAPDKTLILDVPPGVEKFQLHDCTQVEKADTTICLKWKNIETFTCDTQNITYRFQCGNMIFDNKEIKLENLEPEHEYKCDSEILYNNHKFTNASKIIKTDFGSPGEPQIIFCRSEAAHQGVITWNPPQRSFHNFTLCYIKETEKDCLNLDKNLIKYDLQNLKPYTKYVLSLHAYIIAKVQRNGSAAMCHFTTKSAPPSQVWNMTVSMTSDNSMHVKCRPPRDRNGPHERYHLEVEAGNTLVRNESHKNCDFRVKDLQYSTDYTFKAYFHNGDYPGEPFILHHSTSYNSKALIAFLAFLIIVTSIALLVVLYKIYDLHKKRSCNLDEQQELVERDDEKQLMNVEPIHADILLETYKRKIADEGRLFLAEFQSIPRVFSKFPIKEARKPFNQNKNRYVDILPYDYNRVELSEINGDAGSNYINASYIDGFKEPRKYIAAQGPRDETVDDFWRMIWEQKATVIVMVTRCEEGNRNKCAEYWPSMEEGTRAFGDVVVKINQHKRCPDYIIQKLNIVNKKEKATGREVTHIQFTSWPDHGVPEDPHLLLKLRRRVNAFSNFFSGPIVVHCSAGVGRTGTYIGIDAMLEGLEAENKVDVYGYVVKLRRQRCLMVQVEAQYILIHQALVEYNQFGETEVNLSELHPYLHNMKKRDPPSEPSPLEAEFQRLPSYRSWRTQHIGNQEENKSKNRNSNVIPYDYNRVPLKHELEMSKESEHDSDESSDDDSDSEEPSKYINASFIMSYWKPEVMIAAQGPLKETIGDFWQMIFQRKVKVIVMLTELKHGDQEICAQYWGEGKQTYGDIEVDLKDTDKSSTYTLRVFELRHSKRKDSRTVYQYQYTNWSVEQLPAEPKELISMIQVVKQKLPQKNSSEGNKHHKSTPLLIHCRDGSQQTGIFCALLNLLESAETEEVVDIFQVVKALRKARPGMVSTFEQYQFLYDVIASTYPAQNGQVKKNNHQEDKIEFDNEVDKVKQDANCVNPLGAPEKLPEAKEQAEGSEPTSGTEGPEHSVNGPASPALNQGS
Text: as §1

[3] = target: Dual specificity protein phosphatase 3 (Homo sapiens, UniProt P51452)
Text: as §1

[4] = target: T3, Tyrosine-protein phosphatase non-receptor type 2 (Homo sapiens, UniProt P17706)
T3 sequence (P17706 whole entry): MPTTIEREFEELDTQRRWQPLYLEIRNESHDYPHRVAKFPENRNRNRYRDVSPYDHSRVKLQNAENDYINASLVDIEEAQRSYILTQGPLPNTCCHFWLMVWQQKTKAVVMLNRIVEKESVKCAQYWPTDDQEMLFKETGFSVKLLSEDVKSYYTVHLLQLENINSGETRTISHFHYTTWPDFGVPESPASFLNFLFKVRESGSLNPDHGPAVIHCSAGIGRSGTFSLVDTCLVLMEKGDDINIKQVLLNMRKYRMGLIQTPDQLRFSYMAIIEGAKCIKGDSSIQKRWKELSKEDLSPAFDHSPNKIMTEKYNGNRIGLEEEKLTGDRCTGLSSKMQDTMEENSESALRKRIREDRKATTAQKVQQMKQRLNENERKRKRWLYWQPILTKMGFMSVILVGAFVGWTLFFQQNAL
Text: as §1

[5] = target: T4, Low molecular weight protein-tyrosine phosphatase A (Mycobacterium tuberculosis (strain ATCC 25618 / H37Rv), UniProt P9WIA1)
T4 sequence (P9WIA1 whole entry): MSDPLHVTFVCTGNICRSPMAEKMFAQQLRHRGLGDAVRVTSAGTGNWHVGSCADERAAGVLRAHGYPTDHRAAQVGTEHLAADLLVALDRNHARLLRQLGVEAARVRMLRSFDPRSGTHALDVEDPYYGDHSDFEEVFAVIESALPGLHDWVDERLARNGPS
Text: as §1

[6] = target: Receptor-type tyrosine-protein phosphatase F (Homo sapiens, UniProt P10586)
Chain of Receptor-type tyrosine-protein phosphatase F (P10586 whole entry): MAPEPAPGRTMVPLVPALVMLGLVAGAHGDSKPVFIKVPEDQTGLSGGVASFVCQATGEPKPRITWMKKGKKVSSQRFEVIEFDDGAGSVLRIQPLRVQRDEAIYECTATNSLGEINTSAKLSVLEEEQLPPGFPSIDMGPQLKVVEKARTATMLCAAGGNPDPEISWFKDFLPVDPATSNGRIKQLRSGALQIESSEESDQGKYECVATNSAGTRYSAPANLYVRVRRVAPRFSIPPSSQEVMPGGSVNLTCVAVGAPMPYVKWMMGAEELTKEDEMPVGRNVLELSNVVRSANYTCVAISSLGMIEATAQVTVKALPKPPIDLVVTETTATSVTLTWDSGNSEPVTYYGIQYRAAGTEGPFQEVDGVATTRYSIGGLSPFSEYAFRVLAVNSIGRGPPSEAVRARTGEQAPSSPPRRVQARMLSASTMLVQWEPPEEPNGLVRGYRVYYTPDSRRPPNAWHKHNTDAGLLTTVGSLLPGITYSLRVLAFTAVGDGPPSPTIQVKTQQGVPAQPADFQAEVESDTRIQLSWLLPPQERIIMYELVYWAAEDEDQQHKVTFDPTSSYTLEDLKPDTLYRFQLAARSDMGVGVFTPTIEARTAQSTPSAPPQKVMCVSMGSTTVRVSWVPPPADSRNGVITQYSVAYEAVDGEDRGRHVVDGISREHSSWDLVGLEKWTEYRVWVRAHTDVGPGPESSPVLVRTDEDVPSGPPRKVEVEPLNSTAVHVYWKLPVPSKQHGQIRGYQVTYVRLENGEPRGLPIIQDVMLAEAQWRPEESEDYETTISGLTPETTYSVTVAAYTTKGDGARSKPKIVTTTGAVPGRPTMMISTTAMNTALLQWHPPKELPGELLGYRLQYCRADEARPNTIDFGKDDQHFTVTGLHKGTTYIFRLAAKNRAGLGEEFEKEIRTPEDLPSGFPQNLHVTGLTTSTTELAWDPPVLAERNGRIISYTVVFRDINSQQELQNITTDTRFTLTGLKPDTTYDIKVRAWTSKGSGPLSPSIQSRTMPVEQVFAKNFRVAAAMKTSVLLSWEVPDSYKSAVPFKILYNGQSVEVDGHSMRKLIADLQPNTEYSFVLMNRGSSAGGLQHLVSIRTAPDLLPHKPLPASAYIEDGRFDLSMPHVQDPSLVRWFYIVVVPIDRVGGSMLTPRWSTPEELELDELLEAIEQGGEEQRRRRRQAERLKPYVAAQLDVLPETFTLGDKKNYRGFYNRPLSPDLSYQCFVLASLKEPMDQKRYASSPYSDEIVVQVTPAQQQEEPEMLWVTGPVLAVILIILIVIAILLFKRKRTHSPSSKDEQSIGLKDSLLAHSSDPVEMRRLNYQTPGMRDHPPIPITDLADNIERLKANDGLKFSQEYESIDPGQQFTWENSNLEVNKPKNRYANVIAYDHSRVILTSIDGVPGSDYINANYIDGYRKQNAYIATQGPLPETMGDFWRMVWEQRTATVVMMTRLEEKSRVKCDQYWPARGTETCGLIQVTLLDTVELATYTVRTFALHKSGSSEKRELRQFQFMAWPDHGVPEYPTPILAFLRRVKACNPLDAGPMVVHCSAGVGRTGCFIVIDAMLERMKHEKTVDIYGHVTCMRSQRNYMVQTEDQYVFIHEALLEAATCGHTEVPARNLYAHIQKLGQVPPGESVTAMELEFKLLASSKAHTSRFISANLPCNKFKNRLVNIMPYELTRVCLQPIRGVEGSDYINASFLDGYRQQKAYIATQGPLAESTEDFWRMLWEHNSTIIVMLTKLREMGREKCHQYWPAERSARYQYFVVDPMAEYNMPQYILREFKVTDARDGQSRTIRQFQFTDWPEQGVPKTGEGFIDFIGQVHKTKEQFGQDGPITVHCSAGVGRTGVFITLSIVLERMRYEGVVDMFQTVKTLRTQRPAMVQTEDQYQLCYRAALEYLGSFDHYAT
Text: as §1

Chain of Dual specificity protein phosphatase 3 (P51452 whole entry): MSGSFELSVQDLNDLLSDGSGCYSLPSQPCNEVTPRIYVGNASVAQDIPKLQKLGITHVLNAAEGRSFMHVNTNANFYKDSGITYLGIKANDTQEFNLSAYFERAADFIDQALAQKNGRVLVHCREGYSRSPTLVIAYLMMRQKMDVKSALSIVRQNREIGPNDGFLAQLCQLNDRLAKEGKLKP

Structure (SMILES): CC(C)c1cc(-c2cccc(C(F)(F)F)c2)ccc1-c1cc(C(=O)O)no1 [5-[2-(propan-2-yl)-4-[3-(trifluoromethyl)phenyl]phenyl]-1,2-oxazole-3-carboxylic acid]
- Ki [1]: 0.85 µM

Structure (SMILES): O=C(O)c1cc(-c2ccc(-c3ccc(F)c(C(F)(F)F)c3)cc2C2CCCCC2)on1 [5-{2-cyclohexyl-4-[4-fluoro-3-(trifluoromethyl)phenyl]phenyl}-1,2-oxazole-3-carboxylic acid]
- Ki [2]: 7.7 µM
- Ki [3]: > 50 µM
- Ki [4]: > 50 µM
- Ki [5]: > 50 µM
- Ki [6]: 21.4 µM

Structure (SMILES): O=C(O)c1cc(-c2ccc(-c3cccc(C(F)(F)F)c3)cc2)on1 [5-{4-[3-(trifluoromethyl)phenyl]phenyl}-1,2-oxazole-3-carboxylic acid]
- Ki [1]: 2.5 µM

Structure (SMILES): O=C1CC(c2ccc(-c3cccc(C(F)(F)F)c3)cc2)S(=O)(=O)N1 (centres undefined) [5-{4-[3-(trifluoromethyl)phenyl]phenyl}-1,2-thiazolidine-1,1,3-trione]
- Ki [1]: 8.8 µM

Structure (SMILES): CC(C)c1cc(-c2ccc(F)c(C(F)(F)F)c2)ccc1-c1cc(C(=O)O)no1 [5-{4-[4-fluoro-3-(trifluoromethyl)phenyl]-2-(propan-2-yl)phenyl}-1,2-oxazole-3-carboxylic acid]
- Ki [1]: 0.5 µM
